Experimental data: US10077238B2, “Small molecule LFA-1 inhibitors” (ALLOCYTE PHARMACEUTICALS AG, priority 2014, dated 2018)
Several values for one entry are separate records, joined by “and”; a condition that tells them apart may be missing. Equal values may be shown once.

Target: T1, LFA-1 (Homo sapiens, UniProt P20701)
T1 construct: endogenous in cells; host or cells: Jurkat cells
Assay: V well cell adhesion assay, LFA-1-mediated Jurkat cell binding to ICAM-1 (LFA-1 adhesion)
Assay type: cell-based
Settings: Jurkat cells on ICAM-1/Fc; mean ±SD of ≥3 independent experiments in triplicates or single experiments in triplicates
Protocol: Cell-Based Assay to Determine the Effect of the Compounds on LFA-1-Mediated Cell Adhesion (LFA-1 Adhesion)
Purpose of the Assay: The V well cell adhesion assay measures the ability of the compounds to interfere with LFA-1-mediated binding to ICAM-1 at cellular level. The assay has been successfully used in the past to identify and characterize small molecules LFA-1 inhibitors.
Experimental Protocol: The adhesion assay was performed in Vbottom 96-well plates as described previously [Weitz-Schmidt 2012]. Briefly, the plates were coated with anti-human IgG mAb diluted in coating buffer (20 mM Tris containing 150 mM NaCl, pH 8) (1 μg/mL) and incubated overnight at 4° C. The plates were flicked out and blocked with blocking buffer (50 mM Tris base, 150 mM NaCl, 1.5% BSA (w/v), pH 7.2) at 37° C. for 90 min. Then human recombinant ICAM-1/Fc (R&D Systems) diluted in coating buffer (0.3 μg/mL) was added to each well. The plates were incubated at 37° C. for 90 min and washed with binding buffer (50 mM Tris base, 150 mM NaCl, 1.5% BSA (w/v), 2 mM MgCl2, 2 mM MnCl2, 5 mM D-glucose monohydrate, pH 7.2-7.4) to remove unbound ligand.
Jurkat cells were cultured under standard conditions as recommended by the American Type Culture collection (ATCC). The cells were fluorescently labelled with BCECF-AM in PBS (1 μg/mL) at 37° C. for 20 min in the dark, centrifuged and washed with PBS. The test compounds were dissolved in DMSO at 10 mM and serially pre-diluted in DMSO (100%) to avoid precipitation, before performing final dilution steps in binding buffer.
The labelled Jurkat cells were re-suspended in binding buffer and test compounds or solvent control were added. The DMSO concentration was kept constant in all samples (1% DMSO as final assay concentration). After 40 min at 37° C. (LFA-1 activation and compound pre-incubation step) the cell suspension (3×10^5 cells/mL in binding buffer) was pipetted up and down and transferred to the ligand-coated microtiter V well plates (30 000 cells/well). The plates were centrifuged for 4 min at room temperature (rt) at 1000 rpm (Centrifuge Eppendorf 5810 R), setting the brake off Non-adherent cells that accumulated in the center of the Vbottom were quantified using a fluorescence reader with the filter sets allowing excitation at 485 nm and quantification of emission at 535 nm. The determination of the half maximal inhibitory concentration (IC50) of the compounds was calculated using the software GraphPad Prism 6.

T1 sequence (P20701 26-1170): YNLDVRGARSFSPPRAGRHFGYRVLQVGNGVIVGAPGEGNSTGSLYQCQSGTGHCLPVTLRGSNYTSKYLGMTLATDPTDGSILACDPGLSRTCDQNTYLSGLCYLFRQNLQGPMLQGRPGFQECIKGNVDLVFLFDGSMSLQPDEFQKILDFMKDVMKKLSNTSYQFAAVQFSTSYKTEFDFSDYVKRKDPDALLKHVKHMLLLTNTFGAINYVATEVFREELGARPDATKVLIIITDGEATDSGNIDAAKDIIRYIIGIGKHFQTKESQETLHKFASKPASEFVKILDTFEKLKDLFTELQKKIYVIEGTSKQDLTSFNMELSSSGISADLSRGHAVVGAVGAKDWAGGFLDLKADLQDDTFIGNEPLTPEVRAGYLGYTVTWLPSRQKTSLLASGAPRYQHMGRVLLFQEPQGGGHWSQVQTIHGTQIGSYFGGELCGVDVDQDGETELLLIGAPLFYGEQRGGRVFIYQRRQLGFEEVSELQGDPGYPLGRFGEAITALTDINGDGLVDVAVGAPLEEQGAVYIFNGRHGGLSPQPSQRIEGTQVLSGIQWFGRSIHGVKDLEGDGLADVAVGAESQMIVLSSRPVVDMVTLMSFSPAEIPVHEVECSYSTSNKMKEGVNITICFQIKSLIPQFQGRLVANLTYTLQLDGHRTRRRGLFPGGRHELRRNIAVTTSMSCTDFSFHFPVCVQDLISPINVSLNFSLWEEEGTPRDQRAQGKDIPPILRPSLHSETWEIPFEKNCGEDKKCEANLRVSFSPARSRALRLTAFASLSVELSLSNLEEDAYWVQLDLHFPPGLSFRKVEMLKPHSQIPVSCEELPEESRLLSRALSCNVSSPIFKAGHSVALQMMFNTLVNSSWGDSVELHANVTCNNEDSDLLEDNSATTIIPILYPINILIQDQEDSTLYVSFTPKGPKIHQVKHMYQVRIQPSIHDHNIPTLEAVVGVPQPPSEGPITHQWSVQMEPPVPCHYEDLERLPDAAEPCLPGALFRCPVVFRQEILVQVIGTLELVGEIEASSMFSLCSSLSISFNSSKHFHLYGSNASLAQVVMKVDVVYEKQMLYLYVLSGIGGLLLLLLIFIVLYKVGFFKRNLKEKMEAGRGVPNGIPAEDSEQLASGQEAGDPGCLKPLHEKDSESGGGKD
T1 sequence (P05107 23-769 partner): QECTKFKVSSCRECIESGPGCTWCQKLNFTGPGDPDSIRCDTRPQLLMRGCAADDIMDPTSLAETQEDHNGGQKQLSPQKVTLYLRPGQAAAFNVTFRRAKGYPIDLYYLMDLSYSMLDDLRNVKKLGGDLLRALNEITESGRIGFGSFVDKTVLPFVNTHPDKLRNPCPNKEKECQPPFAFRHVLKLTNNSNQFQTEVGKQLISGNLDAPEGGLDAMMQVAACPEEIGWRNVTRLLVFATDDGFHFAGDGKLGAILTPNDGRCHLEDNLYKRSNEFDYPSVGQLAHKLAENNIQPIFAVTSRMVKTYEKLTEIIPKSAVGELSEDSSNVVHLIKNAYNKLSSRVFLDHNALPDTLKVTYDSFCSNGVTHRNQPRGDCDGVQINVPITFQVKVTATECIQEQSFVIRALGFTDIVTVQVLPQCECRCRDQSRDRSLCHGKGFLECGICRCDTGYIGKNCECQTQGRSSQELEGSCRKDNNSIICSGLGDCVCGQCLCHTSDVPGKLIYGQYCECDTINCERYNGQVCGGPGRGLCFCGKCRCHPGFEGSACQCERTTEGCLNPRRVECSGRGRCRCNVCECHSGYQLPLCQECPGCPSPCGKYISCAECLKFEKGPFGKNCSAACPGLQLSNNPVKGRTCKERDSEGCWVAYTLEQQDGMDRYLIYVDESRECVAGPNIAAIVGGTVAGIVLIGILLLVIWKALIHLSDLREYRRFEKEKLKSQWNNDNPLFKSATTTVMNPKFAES

Row | IC50 | Structure (SMILES)
1 | 101 nM | C[C@]12C(=O)N(c3cc(Cl)cc(Cl)c3)C(=O)[C@H]1C2(c1ccc(OC(F)(F)F)cc1)c1ccc(OC(F)(F)F)cc1 (racemic) [4q (racemate), rac-(1S,5S)-3-(3,5-Dichlorophenyl)-1-methyl-6,6-bis[4-(trifluoromethoxy)phenyl]-3-azabicyclo[3.1.0]hexane-2,4-dione]
2 | 3470 nM | C[C@]12C(=O)N(c3cc(Cl)cc(Cl)c3)C(=O)[C@H]1[C@@]2(C(=O)N1CCOCC1)c1ccc(Br)cc1 (racemic) [4′k (racemate), rac-(1S,5R,6R)-6-(4-Bromophenyl)-3-(3,5-dichlorophenyl)-1-methyl-6-[(morpholin-4-yl)carbonyl]-3-azabicyclo[3.1.0]hexane-2,4-dione]
3 | > 3000 nM | C[C@]12C(=O)N(c3cc(Cl)cc(Cl)c3)C(=O)[C@H]1[C@@]2(C(=O)N1CCOCC1)c1ccc(C(F)(F)F)cc1 (racemic) [4′l (racemate), rac-(1S,5R,6R)-3-(3,5-Dichlorophenyl)-1-methyl-6-[(morpholin-4-yl)carbonyl]-6-[4-(trifluoromethyl)phenyl]-3-azabicyclo[3.1.0]hexane-2,4-dione]
4 | 405 nM | C[C@]12C(=O)N(c3cc(Cl)cc(Cl)c3)C(=O)[C@H]1[C@@]2(C(=O)N1CCOCC1)c1ccc(OC(F)(F)F)cc1 (racemic) [4′m (racemate), rac-(1S,5R,6R)-3-(3,5-Dichlorophenyl)-1-methyl-6-[(morpholin-4-yl)carbonyl]-6-[4-(trifluoromethoxy)phenyl]-3-azabicyclo[3.1.0]hexane-2,4-dione]
5 | 636 nM | C[C@]12C(=O)N(c3cc(Cl)cc(Cl)c3)C(=O)[C@H]1[C@@]2(C(=O)N1CCOCC1)c1ccc(C#N)cc1 (racemic) [4′n (racemate), rac-4-[(1S,5R,6R)-3-(3,5-Dichlorophenyl)-1-methyl-6-[(morpholin-4-yl)carbonyl]-2,4-dioxo-3-azabicyclo[3.1.0]hexan-6-yl]benzonitrile]
6 | > 3000 nM | CC12C(=O)N(c3cc(Cl)cc(Cl)c3)C(=O)C1C2(c1ccccc1)c1ccncc1 (single isomer, unassigned) [4 o or 4′o diastereomer I (racemate), rac-(1 S, 5S, 6S)- and rac-(1 S, 5S, 6R)-3-(3,5-Dichlorophenyl)-1-methyl-6-phenyl-6-(pyridin-4-yl)-3-azabicyclo[3.1.0]hexane-2,4-dione]
7 | 458 nM | CC12C(=O)N(c3cc(Cl)cc(Cl)c3)C(=O)C1C2(c1ccccc1)c1ccncc1 (single isomer, unassigned) [4 o or 4′o diastereomer II (racemate), rac-(1 S, 5S, 6S)- and rac-(1 S, 5S, 6R)-3-(3,5-Dichlorophenyl)-1-methyl-6-phenyl-6-(pyridin-4-yl)-3-azabicyclo[3.1.0]hexane-2,4-dione]
8 | 562 nM and 530 nM | CC12C(=O)N(c3cc(Cl)cc(Cl)c3)C(=O)C1C2(c1ccc(C#N)cc1)c1ccc(OC(F)(F)F)cc1 (single isomer, unassigned) [4i/4′i diastereomer I (racemate), rac-4-[(1 S, 5S, 6S)- and rac-4-(1 S, 5S, 6R)-3-(3,5-Dichlorophenyl)-1-methyl-2,4-dioxo-6-[4-(trifluoro-methoxy)-phenyl]-3-azabicyclo[3.1.0]hexan-6-yl]benzonitrile]
9 | 132 nM | N#Cc1ccc(C2(c3ccc(OC(F)(F)F)cc3)C3C(=O)N(c4cc(Cl)cc(Cl)c4)C(=O)C32)cc1 (single isomer, unassigned) [4r or 4′r diastereomer II]
10 | 963 nM | N#Cc1ccc(C2(c3ccc(OC(F)(F)F)cc3)C3C(=O)N(c4cc(Cl)cc(Cl)c4)C(=O)C32)cc1 (single isomer, unassigned) [4r or 4′r diastereomer I]
11 | 1830 nM | COc1ccc(C2(c3ccc(Cl)cc3)C3C(=O)N(c4cc(Cl)cc(Cl)c4)C(=O)C32C)cc1 (single isomer, unassigned) [4s or 4′s diastereomer I (racemate), rac-(1 S, 5S, 6R)- and rac-(1 S, 5S, 6S)-6-(4-Chlorophenyl)-3-(3,5-dichlorophenyl)-6-(4-methoxyphenyl)-1-methyl-3-azabicyclo[3.1.0]hexane-2,4-dione]
12 | 153 nM | COc1ccc(C2(c3ccc(Cl)cc3)C3C(=O)N(c4cc(Cl)cc(Cl)c4)C(=O)C32C)cc1 (single isomer, unassigned) [4s or 4′s diastereomer II (racemate), rac-(1 S, 5S, 6R)- and rac-(1 S, 5S, 6S)-6-(4-Chlorophenyl)-3-(3,5-dichlorophenyl)-6-(4-methoxyphenyl)-1-methyl-3-azabicyclo[3.1.0]hexane-2,4-dione]
13 | 870 nM | CC12C(=O)N(c3cc(Cl)cc(Cl)c3)C(=O)C1C2(c1ccccc1)c1ccco1 (single isomer, unassigned) [4t or 4′t Diastereomer I (racemate), rac-(1 S, 5S, 6R)- and rac-(1 S, 5S, 6S)-3-(3,5-Dichlorophenyl)-6-(furan-2-yl)-1-methyl-6-phenyl-3-azabicyclo[3.1.0]hexane-2,4-dione]
14 | > 1000 nM | N#Cc1ccc(C2(c3ccncc3)C3C(=O)N(c4cc(Cl)cc(Cl)c4)C(=O)C32)cc1 (single isomer, unassigned) [4y or 4′y diastereomer I, rel-4-[(1 S, 5R, 6s)- and rel-4-[(1 S, 5R, 6r)-3-(3,5-Dichlorophenyl)-2,4-dioxo-6-(pyridin-4-yl)-3-azabicyclo[3.1.0]hexan-6-yl]benzonitrile]
15 | ≥ 1000 nM | N#Cc1ccc(C2(c3ccncc3)C3C(=O)N(c4cc(Cl)cc(Cl)c4)C(=O)C32)cc1 (single isomer, unassigned) [4y or 4′y diastereomer II, rel-4-[(1 S, 5R, 6s)- and rel-4-[(1 S, 5R, 6r)-3-(3,5-Dichlorophenyl)-2,4-dioxo-6-(pyridin-4-yl)-3-azabicyclo[3.1.0]hexan-6-yl]benzonitrile]
16 | > 1000 nM | CC12C(=O)N(c3cc(Cl)cc(Cl)c3)C(=O)C1C2(c1ccncc1)c1ccc(C#N)cc1 (single isomer, unassigned) [4z or 4′z diastereomer I (racemate)]
17 | 71 nM | CC12C(=O)N(c3cc(Cl)cc(Cl)c3)C(=O)C1C2(c1ccncc1)c1ccc(C#N)cc1 (single isomer, unassigned) [4z or 4′z diastereomer II (racemate)]
18 | 1590 nM | O=C1[C@@H]2[C@H](C(=O)N1c1cc(Cl)cc(Cl)c1)[C@@H]2c1ccccc1 [4′c, rel-(1R,5S,6r)-3-(3,5-Dichlorophenyl)-6-phenyl-3-azabicyclo[3.1.0]hexane-2,4-dione]
19 | 3330 nM | O=C1[C@@H]2[C@H](C(=O)N1c1cc(Cl)cc(Cl)c1)[C@@H]2c1ccc(Br)cc1 [4′e, rel-(1R,5S,6r)-6-(4-Bromophenyl)-3-(3,5-dichloro-phenyl)-3-azabicyclo[3.1.0]hexane-2,4-dione]
20 | 8480 nM | O=C1[C@@H]2[C@H](C(=O)N1c1cc(Cl)cc(Cl)c1)C2(c1ccccc1)c1ccccc1 [Compound 4a, 3-(3,5-Dichlorophenyl)-6,6-diphenyl-3-azabicyclo[3.1.0]hexane-2,4-dione]

Row | Structure (SMILES) | IC50
21 | CC12C(=O)N(c3cc(Cl)cc(Cl)c3)C(=O)C1C2(c1ccccc1)c1ccccc1 (single isomer, unassigned) [4b enantiomer B] | > 10000 nM
